{"source": "patent US20240109972A1", "about": "“ANTIBODY AND TAXANE COMBINATION THERAPY” (Genmab A/S, priority 2020, published 2024)", "test_system": "solid malignant tumors", "test": "GEN1046 Phase I dose escalation (NCT03917381), response by RECIST v1.1", "format": "in vivo, human", "conditions": "for BOR Stable Disease, (percent) / BOR Stable Disease, patients / BOR Complete Response, (percent) / BOR Complete Response, patients / BOR Progressive Disease, (percent) / BOR Progressive Disease, patients / BOR Partial Response, (percent) / BOR Partial Response, patients: 3 Feb. 2020", "from_the_text": "The resistance to, failure to respond to and/or relapse from treatment with a binding agent of the invention and/or other therapeutic agent(s) may be determined according to the Response Evaluation Criteria In Solid Tumors; version 1.1 (RECIST Criteria v1.1).\nThe “best overall response” is the best response recorded from the start of the treatment until disease progression/recurrence (the smallest measurements recorded since the treatment started will be used as the reference for PD). Subjects with CR or PR are considered to be objective response. Subjects with CR, PR or SD are considered to be in disease control. Subjects with NE are counted as non-responders. […]\nClinical trial on GCT1046-01 (ClinicalTrials.gov Identifier: NCT03917381) was designed as a two-part trial, including an ongoing dose escalation part and a planned expansion part.\nThe trial consists of 2 parts; a First-in-Human (FIH) dose escalation (Phase I) and an expansion (Phase 11a).\nFor dose escalation, subject was required to be a man or […] and was required to have measurable disease according to RECIST 1.1.", "data": [{"substance": "GEN1046: PD-L1×4-1BB bispecific antibody: PD-L1-547-FEAL combined with CD137-009-HC7LC2-FEAR (SEQ ID NOs: 1, 5, 21, 19; 8, 12, 22, 20)", "values": [{"measurement": "BOR Stable Disease, (percent)", "setting": "140 mg (n = 1)", "result": "(0)"}, {"measurement": "BOR Stable Disease, patients", "setting": "140 mg (n = 1)", "result": 0}, {"measurement": "CR (Complete Response), patients", "setting": "200 mg (N 9), Oct. 12, 2020", "result": 0}, {"measurement": "Confirmed CR (Complete Response), patients", "setting": "200 mg (N 9), Oct. 12, 2020", "result": 0}, {"measurement": "Confirmed Disease Control (PR + PR + SD) Rate, %", "setting": "200 mg (N 9), Oct. 12, 2020", "result": 66.7, "unit": "%"}, {"measurement": "Confirmed Disease Control (PR + PR + SD) Rate, patients", "setting": "200 mg (N 9), Oct. 12, 2020", "result": 6}, {"measurement": "Confirmed NE (Not Evaluable), % of patients", "setting": "200 mg (N 9), Oct. 12, 2020", "result": 11.1, "unit": "%"}, {"measurement": "Confirmed NE (Not Evaluable), patients", "setting": "200 mg (N 9), Oct. 12, 2020", "result": 1}, {"measurement": "Confirmed Objective Response (CR + PR) Rate, patients", "setting": "200 mg (N 9), Oct. 12, 2020", "result": 0}, {"measurement": "Confirmed PD (Progressive Disease), % of patients", "setting": "200 mg (N 9), Oct. 12, 2020", "result": 22.2, "unit": "%"}, {"measurement": "Confirmed PD (Progressive Disease), patients", "setting": "200 mg (N 9), Oct. 12, 2020", "result": 2}, {"measurement": "Confirmed PR (Partial Response), patients", "setting": "200 mg (N 9), Oct. 12, 2020", "result": 0}, {"measurement": "Confirmed SD (Stable Disease), % of patients", "setting": "200 mg (N 9), Oct. 12, 2020", "result": 66.7, "unit": "%"}, {"measurement": "Confirmed SD (Stable Disease), patients", "setting": "200 mg (N 9), Oct. 12, 2020", "result": 6}, {"measurement": "Disease Control (PR + PR + SD) Rate, %", "setting": "200 mg (N 9), Oct. 12, 2020", "result": 66.7, "unit": "%"}, {"measurement": "Disease Control (PR + PR + SD) Rate, patients", "setting": "200 mg (N 9), Oct. 12, 2020", "result": 6}, {"measurement": "NE (Not Evaluable), % of patients", "setting": "200 mg (N 9), Oct. 12, 2020", "result": 11.1, "unit": "%"}, {"measurement": "NE (Not Evaluable), patients", "setting": "200 mg (N 9), Oct. 12, 2020", "result": 1}, {"measurement": "Objective Response (CR + PR) Rate, %", "setting": "200 mg (N 9), Oct. 12, 2020", "result": 11.1, "unit": "%"}, {"measurement": "Objective Response (CR + PR) Rate, patients", "setting": "200 mg (N 9), Oct. 12, 2020", "result": 1}, {"measurement": "PD (Progressive Disease), % of patients", "setting": "200 mg (N 9), Oct. 12, 2020", "result": 22.2, "unit": "%"}, {"measurement": "PD (Progressive Disease), patients", "setting": "200 mg (N 9), Oct. 12, 2020", "result": 2}, {"measurement": "PR (Partial Response), % of patients", "setting": "200 mg (N 9), Oct. 12, 2020", "result": 11.1, "unit": "%"}, {"measurement": "PR (Partial Response), patients", "setting": "200 mg (N 9), Oct. 12, 2020", "result": 1}, {"measurement": "BOR Complete Response, (percent)", "setting": "200 mg (n = 8)", "result": "(0)"}, {"measurement": "BOR Complete Response, patients", "setting": "200 mg (n = 8)", "result": 0}, {"measurement": "BOR Progressive Disease, (percent)", "setting": "200 mg (n = 8)", "result": "(25)"}, {"measurement": "BOR Progressive Disease, patients", "setting": "200 mg (n = 8)", "result": 2}, {"measurement": "BOR Stable Disease, (percent)", "setting": "200 mg (n = 8)", "result": "(62.5)"}, {"measurement": "BOR Stable Disease, patients", "setting": "200 mg (n = 8)", "result": 5}, {"measurement": "BOR Partial Response, (percent)", "setting": "200 mg (n = 8), uPR", "result": "(12.5)"}, {"measurement": "BOR Partial Response, patients", "setting": "200 mg (n = 8), uPR", "result": "1^1"}, {"measurement": "CR (Complete Response), patients", "setting": "400 mg (N 9), Oct. 12, 2020", "result": 0}, {"measurement": "Confirmed CR (Complete Response), patients", "setting": "400 mg (N 9), Oct. 12, 2020", "result": 0}, {"measurement": "Confirmed Disease Control (PR + PR + SD) Rate, %", "setting": "400 mg (N 9), Oct. 12, 2020", "result": 77.8, "unit": "%"}, {"measurement": "Confirmed Disease Control (PR + PR + SD) Rate, patients", "setting": "400 mg (N 9), Oct. 12, 2020", "result": 7}, {"measurement": "Confirmed NE (Not Evaluable), patients", "setting": "400 mg (N 9), Oct. 12, 2020", "result": 0}, {"measurement": "Confirmed Objective Response (CR + PR) Rate, patients", "setting": "400 mg (N 9), Oct. 12, 2020", "result": 0}, {"measurement": "Confirmed PD (Progressive Disease), % of patients", "setting": "400 mg (N 9), Oct. 12, 2020", "result": 22.2, "unit": "%"}, {"measurement": "Confirmed PD (Progressive Disease), patients", "setting": "400 mg (N 9), Oct. 12, 2020", "result": 2}, {"measurement": "Confirmed PR (Partial Response), patients", "setting": "400 mg (N 9), Oct. 12, 2020", "result": 0}, {"measurement": "Confirmed SD (Stable Disease), % of patients", "setting": "400 mg (N 9), Oct. 12, 2020", "result": 77.8, "unit": "%"}, {"measurement": "Confirmed SD (Stable Disease), patients", "setting": "400 mg (N 9), Oct. 12, 2020", "result": 7}, {"measurement": "Disease Control (PR + PR + SD) Rate, %", "setting": "400 mg (N 9), Oct. 12, 2020", "result": 77.8, "unit": "%"}, {"measurement": "Disease Control (PR + PR + SD) Rate, patients", "setting": "400 mg (N 9), Oct. 12, 2020", "result": 7}, {"measurement": "NE (Not Evaluable), patients", "setting": "400 mg (N 9), Oct. 12, 2020", "result": 0}, {"measurement": "Objective Response (CR + PR) Rate, patients", "setting": "400 mg (N 9), Oct. 12, 2020", "result": 0}, {"measurement": "PD (Progressive Disease), % of patients", "setting": "400 mg (N 9), Oct. 12, 2020", "result": 22.2, "unit": "%"}, {"measurement": "PD (Progressive Disease), patients", "setting": "400 mg (N 9), Oct. 12, 2020", "result": 2}, {"measurement": "PR (Partial Response), patients", "setting": "400 mg (N 9), Oct. 12, 2020", "result": 0}, {"measurement": "BOR Complete Response, (percent)", "setting": "400 mg (n = 6)", "result": "(0)"}, {"measurement": "BOR Complete Response, patients", "setting": "400 mg (n = 6)", "result": 0}, {"measurement": "BOR Partial Response, (percent)", "setting": "400 mg (n = 6)", "result": "(0)"}, {"measurement": "BOR Partial Response, patients", "setting": "400 mg (n = 6)", "result": 0}, {"measurement": "BOR Progressive Disease, (percent)", "setting": "400 mg (n = 6)", "result": "(0)"}, {"measurement": "BOR Progressive Disease, patients", "setting": "400 mg (n = 6)", "result": 0}, {"measurement": "BOR Stable Disease, (percent)", "setting": "400 mg (n = 6)", "result": "(100)"}, {"measurement": "BOR Stable Disease, patients", "setting": "400 mg (n = 6)", "result": 6}, {"measurement": "CR (Complete Response), patients", "setting": "800 mg (N 9), Oct. 12, 2020", "result": 0}, {"measurement": "Confirmed CR (Complete Response), patients", "setting": "800 mg (N 9), Oct. 12, 2020", "result": 0}, {"measurement": "Confirmed Disease Control (PR + PR + SD) Rate, %", "setting": "800 mg (N 9), Oct. 12, 2020", "result": 55.6, "unit": "%"}, {"measurement": "Confirmed Disease Control (PR + PR + SD) Rate, patients", "setting": "800 mg (N 9), Oct. 12, 2020", "result": 5}, {"measurement": "Confirmed NE (Not Evaluable), % of patients", "setting": "800 mg (N 9), Oct. 12, 2020", "result": 22.2, "unit": "%"}, {"measurement": "Confirmed NE (Not Evaluable), patients", "setting": "800 mg (N 9), Oct. 12, 2020", "result": 2}, {"measurement": "Confirmed Objective Response (CR + PR) Rate, patients", "setting": "800 mg (N 9), Oct. 12, 2020", "result": 0}, {"measurement": "Confirmed PD (Progressive Disease), % of patients", "setting": "800 mg (N 9), Oct. 12, 2020", "result": 22.2, "unit": "%"}]}]}
